Experimental data as given in patent US20260115298A1, “PTH Treatment Regimen Comprising Two PTH Compounds” (priority 2022, published 2026).
Like-named read-outs stand apart in the source and are kept apart here.

Key:
endogenous PTH 1-84 = conditions: healthy volunteers, no further suppression at higher doses, cited from earlier work
[1] = tested on: individuals with hypoparathyroidism; type: in vivo, human; conditions: for Active Vitamin D dose / Calcium supplement dose / Serum Calcium: mean of Compound 1 group
From the text: PaTHway is a phase 3, multicenter (North America and Europe), randomized, double-blind, placebo-controlled, parallel-group, 26-week trial with an open-label extension of 156 weeks that evaluated the efficacy, safety, and tolerability of once-daily Compound 1 as PTH replacement therapy in individuals with hypoparathyroidism. All participants who completed the 26- week blinded treatment period were allowed to enroll in the 156-week open-label extension period. (ClinicalTrials.gov identifier: NCT04701203; EudraCT No.: 2020-003380-26).
Once enrolled, participants were randomized 3:1 into 2 treatment groups: Compound 1 18 μg PTH(1-34)/day or placebo (excipient solution) mimicking 18 μg/day, both co-administered with conventional therapy (active vitamin D and elemental calcium).
Randomization was stratified by etiology of hypoparathyroidism (postsurgical vs. non-surgical). In addition to frequent laboratory visits to measure serum calcium levels, the blinded treatment period included 10 clinic visits over 26 weeks. Once-daily treatment with Compound 1 or placebo was delivered by a modified Ypsomed UnoPen Fix pen injector using 31-gauge, 5 mm pen needles to deliver doses of 6-30 μg/injection in a volume of ≤100 μL to either abdomen or anterior thigh, rotating injection sites.
All participants were initially prescribed Compound 1 18 μg PTH(1-34)/day or a corresponding volume of placebo and were individually and progressively titrated to an optimal dose (allowable range 6-60 μg/day) in increments of 3 μg/day. Titration of study drug and conventional therapy was performed according to a protocol-specified algorithm guided by serum calcium values (Example 2). The algorithm was intended to facilitate independence from conventional therapy by discontinuation of active vitamin D and calcium in response to reestablishment of physiological PTH signaling with Compound 1 treatment. In the setting of normocalcemia, the protocol directs incremental increases in study drug (Compound 1 or placebo) accompanied by stepwise reductions of active vitamin D by 33-50% of the starting dose, followed by reductions of calcium in at least 1500 mg/day increments once vitamin D has been discontinued.
Participants were permitted to take elemental calcium <600 mg/day as a nutritional supplement if required to meet the generally recommended dietary intakes of calcium.
Treatment with Compound 1 was carried out in accordance with Example 1.

palopegteriparatide [Compound 1]
dose that fully suppresses endogenous PTH 1-84 (endogenous PTH 1-84): 16 µg/day
time to complete discontinuation of active vitamin D ([1]; Compound 1 group): ≤ 8 weeks
SAEs considered related to treatment ([1]; in vivo): one
participants reporting SAEs ([1]; in vivo): 8.2%
Active Vitamin D dose ([1]; week 0): 0.992 µg
Calcium supplement dose ([1]; week 0): 1748.03 mg
Serum Calcium ([1]; week 0): 8.8 mg/dL
Active Vitamin D dose ([1]; week 2): 0.098 µg
Calcium supplement dose ([1]; week 2): 1524.1 mg
Serum Calcium ([1]; week 2): 9.8 mg/dL
Active Vitamin D dose ([1]; week 4): 0.008 µg
Calcium supplement dose ([1]; week 4): 548.77 mg
Serum Calcium ([1]; week 4): 9.6 mg/dL
Active Vitamin D dose ([1]; week 6): 0.004 µg
Calcium supplement dose ([1]; week 6): 229.1 mg
Serum Calcium ([1]; week 6): 9.7 mg/dL
Active Vitamin D dose ([1]; week 8): 0 µg
Calcium supplement dose ([1]; week 8): 105.74 mg
Serum Calcium ([1]; week 8): 9.5 mg/dL
Active Vitamin D dose ([1]; week 10): 0 µg
Calcium supplement dose ([1]; week 10): 114.17 mg
Serum Calcium ([1]; week 10): 9.5 mg/dL
Active Vitamin D dose ([1]; week 12): 0 µg
Calcium supplement dose ([1]; week 12): 102.46 mg
Serum Calcium ([1]; week 12): 9.5 mg/dL
Active Vitamin D dose ([1]; week 16): 0 µg
Calcium supplement dose ([1]; week 16): 182.38 mg
Serum Calcium ([1]; week 16): 9.3 mg/dL
Active Vitamin D dose ([1]; week 20): 0 µg
Calcium supplement dose ([1]; week 20): 300.83 mg
Serum Calcium ([1]; week 20): 9.3 mg/dL
Active Vitamin D dose ([1]; week 26): 0 µg
Calcium supplement dose ([1]; week 26): 274.17 mg
Serum Calcium ([1]; week 26): 8.9 mg/dL
mean serum calcium (sCa) levels ([1]; when adequately titrated, all study visits): in the normal range

Compound 5: polypeptide having the sequence AVAEIQLMHQRAKWIQDARR RAFLHKLIAEIHTAEI, SEQ ID NO:122 (AVAEIQLMHQRAKWIQDARRRAFLHKLIAEIHTAEI; Artificial random coil) [reference compound]
dose able to suppress endogenous PTH 1-84 (endogenous PTH 1-84; daily dosing): 60 µg
